Experiments:
PKR(G332S) = PKR(G332S) (Homo sapiens, UniProt P30613, G332S); assay: Luminescence Biochemical Assay (Kinase Glo Plus), PKR G332S mutant; settings: with FBP; for activation at 1.54 µM: 1.54 μM compound, read-out: AC50 LUM KGP FBP % Fold@1.54 μM mean; for AC50: read-out: AC50 LUM KGP FBP AC50 μM gmean (column A); for Emax: read-out: AC50 LUM KGP FBP MAX % FOLD mean
Procedure: (§1) In some embodiments, a PKR Activating Compound can have: (1) an AC50 value of less than 0.1 μM (e.g., compounds with AC50 values of “+++” in Table 13), 0.1-1.0 μM (e.g., compounds with AC50 values of “++” in Table 13), or 1.01-40 μM (e.g., compounds with AC50 values of “+” in Table 13); (2) a MAX % Fold of 75%-250%, 250-500%, or 75%-500%; and/or (3) a % Fold@1.54 μM of 75%-250%, 250-500%, or 75%-500%. In some embodiments, a PKR Activating Compound has (1) an AC50 value of less than 1.0 μM; (2) a MAX % Fold of 75%-500%; and/or (3) a % Fold@1.54 μM of 75%-500%.
(§2) The phosphorylation of Adenosine-5′-diphosphate (ADP) by various mutants of PKR was determined by the Kinase Glo Plus Assay (Promega) in the presence or absence of FBP [D-Fructose-1,6-diphosphate; BOC Sciences, CAS: 81028-91-3] as follows. Unless otherwise indicated, all reagents were purchased from Sigma-Aldrich. All reagents were prepared in buffer containing 50 mM Tris-HCl, 100 mM KCl, 5 mM MgCl2, and 0.01% Triton X100, 0.03% BSA, and 1 mM DTT. Enzyme and PEP [Phospho(enol) pyruvic acid] were added at 2× to all wells of an assay-ready plate containing serial dilutions of test compounds or DMSO vehicle. Final enzyme concentrations for PKR(wt), PKR(R510Q), and PKR(G332S) were 0.8 nM, 0.8 nM, and 10 nM respectively. Final PEP concentration was 100 μM. The Enzyme/PEP mixture was incubated with compounds for 30 minutes at RT before the assay was initiated with the addition of 2×ADP [Adenosine-5′-diphosphate] and KinaseGloPlus. Final concentration of ADP was 100 μM. […] For assays containing FBP, that reagent is added at 30 μM upon reaction initiation. Reactions were allowed to progress for 45 minutes at RT until luminescence was recorded by the BMG PHERAstar FS Multilabel Reader. All compounds were tested in triplicate at concentrations ranging from 42.5 μM to 2.2 nM in 0.83% DMSO.
(§3) Luminescence values were converted to % Fold increase by normalizing to the average of the DMSO control and multiplying by 100. Max, min, slope and AC50 were determined by the standard four parameter fit algorithm of ActivityBase XE Runner. Compounds were evaluated with three parameters—AC50, MAX % Fold, and % Fold@1.54 μM (FIG. 1). The AC50 value for a compound is the concentration (μM) corresponding to the midway between the maximum and minimum values of the four parameter logistic curve fit (i.e., at which the % fold increase along the four parameter logistic curve fit is halfway between MAX % Fold and MIN % Fold (% Fold Midpoint)), MAX % Fold is the highest fold increase observed at any concentration of compound, and % Fold@1.54 μM is the fold increase at a compound concentration of 1.54 μM. The parameter % Fold@1.54 μM was selected to capture elements of both the AC50 and MAX % Fold and to provide a ranking based on both potency and effect. The compound concentration of 1.54 μM was chosen as one that can optimally differentiate the set of compounds based on the range of activities observed.
(§4) As set forth in Table 13 below, AC50 values (columns A, D, G) are defined as follows: ≤0.1 μM (+++); >0.1 μM and ≤1.0 μM (++); >1.0 μM and ≤40 μM (+); >40 μM (0). Max % FOLD values (columns B, E, H) are defined as follows: ≤75% (+); >75% and ≤250% (++); >250% and ≤500% (+++). % Fold@1.54 μM values (columns C, F, J) are defined as follows: ≤75% (+); >75% and ≤250% (++); >250% and ≤50000 (+++).

PKR(R510Q) = PKR(R510Q) (Homo sapiens, UniProt P30613, R510Q); assay: Luminescence Biochemical Assay (Kinase Glo Plus), PKR R510Q mutant; settings: without FBP; for activation at 1.54 µM: 1.54 μM compound, read-out: AC50 LUM KGP woFBP % Fold@1.54 μM mean; for AC50: read-out: AC50 LUM KGP woFBP AC50 μM gmean; for Emax: read-out: AC50 LUM KGP woFBP MAX % FOLD mean
Procedure: as §1, §2, §3, §4

PKR(wt) = PKR(wt) (Homo sapiens, UniProt P30613); assay: Luminescence Biochemical Assay (Kinase Glo Plus), wild type PKR; settings: without FBP; for activation at 1.54 µM: 1.54 μM compound, read-out: AC50 LUM KGP woFBP % Fold@1.54 μM mean; for AC50: read-out: AC50 LUM KGP woFBP AC50 μM gmean; for Emax: read-out: AC50 LUM KGP woFBP MAX % FOLD mean
PKR(wt), sequence (P30613 whole entry): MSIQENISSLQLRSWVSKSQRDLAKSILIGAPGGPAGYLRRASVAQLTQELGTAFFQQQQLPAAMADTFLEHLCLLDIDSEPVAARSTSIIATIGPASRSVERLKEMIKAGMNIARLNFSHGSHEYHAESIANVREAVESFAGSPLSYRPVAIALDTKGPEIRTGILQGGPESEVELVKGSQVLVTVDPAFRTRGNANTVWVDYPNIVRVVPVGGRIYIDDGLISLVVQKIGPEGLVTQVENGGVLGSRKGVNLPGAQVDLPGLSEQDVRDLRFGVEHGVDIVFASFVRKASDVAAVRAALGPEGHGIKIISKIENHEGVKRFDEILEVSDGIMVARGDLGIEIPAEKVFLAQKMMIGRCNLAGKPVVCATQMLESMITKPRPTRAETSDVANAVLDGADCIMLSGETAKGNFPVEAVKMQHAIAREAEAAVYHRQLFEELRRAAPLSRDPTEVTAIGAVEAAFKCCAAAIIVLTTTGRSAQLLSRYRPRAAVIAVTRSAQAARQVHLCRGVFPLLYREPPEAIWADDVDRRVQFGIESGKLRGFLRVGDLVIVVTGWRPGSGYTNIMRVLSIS

PKR(R510Q), sequence (P30613 whole entry R510Q): as the sequence (P30613 whole entry) above, with R510Q counted along it
PKR(G332S), sequence (P30613 whole entry G332S): as the sequence (P30613 whole entry) above, with G332S counted along it

SMILES	activation at 1.54 µM (PKR(G332S))	AC50 (PKR(G332S))	Emax (PKR(G332S))	activation at 1.54 µM (PKR(R510Q))	AC50 (PKR(R510Q))	Emax (PKR(R510Q))	activation at 1.54 µM (PKR(wt))	AC50 (PKR(wt))	Emax (PKR(wt))
Cc1nc(S(=O)(=O)N2CC3=C(CN(C(=O)[C@H](C)c4ccccc4)C3)C2)cn1C [Example 19-3, (2R)-1-{5-[(1,2-dimethyl-1H-imidazol-4-yl)sulfonyl]-1H,2H,3H,4H,5H,6H-pyrrolo[3,4-c]pyrrol-2-yl}-2-phenylpropan-1-one]	75 to 250%	0.1 to 1 µM	75 to 250%	75 to 250%	1 to 40 µM	75 to 250%			
COc1cccc(CNC(=O)N2CC3=C(C2)CN(S(=O)(=O)c2cccc4cnccc24)C3)c1 [Example 20-12, 5-(Isoquinoline-5-sulfonyl)-N-[(3-methoxyphenyl)methyl]-1H,2H,3H,4H,5H,6H-pyrrolo[3,4-c]pyrrole-2-carboxamide]	75 to 250%	1 to 40 µM	75 to 250%	75 to 250%	1 to 40 µM	75 to 250%			
COc1ccc(CNC(=O)N2CC3=C(C2)CN(S(=O)(=O)c2ccc(F)cc2)C3)cc1 [Example 20-3]	75 to 250%	≤ 0.1 µM	75 to 250%	250 to 50000%	0.1 to 1 µM	250 to 500%			
O=C(NCc1ccc(F)cc1)N1CC2=C(C1)CN(S(=O)(=O)c1ccc(F)cc1)C2 [Example 20-20, 5-(4-Fluorobenzenesulfonyl)-N-[(4-fluorophenyl)methyl]-1H,2H,3H,4H,5H,6H-pyrrolo[3,4-c]pyrrole-2-carboxamide]	75 to 250%	≤ 0.1 µM	75 to 250%	75 to 250%	0.1 to 1 µM	250 to 500%			
COc1ccc(CNC(=O)N2CC3=C(C2)CN(S(=O)(=O)c2cccc4cnccc24)C3)cc1 [Example 20-11, 5-(Isoquinoline-5-sulfonyl)-N-[(4-methoxyphenyl)methyl]-1H,2H,3H,4H,5H,6H-pyrrolo[3,4-c]pyrrole-2-carboxamide]	75 to 250%	1 to 40 µM	75 to 250%	75 to 250%	≤ 0.1 µM	75 to 250%			
O=C(NCc1ccc(F)cc1)N1CC2=C(C1)CN(S(=O)(=O)c1cccc3nonc13)C2 [Example 20-24, 5-(2,1,3-Benzoxadiazole-4-sulfonyl)-N-[(4-fluorophenyl)methyl]-1H,2H,3H,4H,5H,6H-pyrrolo[3,4-c]pyrrole-2-carboxamide]	75 to 250%	1 to 40 µM	75 to 250%	75 to 250%	0.1 to 1 µM	250 to 500%			
O=C([C@H](O)c1ccccc1)N1CC2=C(C1)CN(S(=O)(=O)c1ccc(F)cc1F)C2 [Example 18-18, (2R)-1-[5-(2,4-difluorobenzenesulfonyl)-1H,2H,3H,4H,5H,6H-pyrrolo[3,4-c]pyrrol-2-yl]-2-hydroxy-2-phenylethan-1-one]				250 to 50000%	0.1 to 1 µM	250 to 500%	75 to 250%	≤ 0.1 µM	75 to 250%
O=C(NCc1nccs1)N1CC2=C(C1)CN(S(=O)(=O)c1ccc3ncsc3c1)C2 [Example 21-28, 5-(1,3-Benzothiazole-6-sulfonyl)-N-(1,3-thiazol-2-ylmethyl)-1H,2H,3H,4H,5H,6H-pyrrolo[3,4-c]pyrrole-2-carboxamide]				75 to 250%	0.1 to 1 µM	75 to 250%	75 to 250%	0.1 to 1 µM	250 to 500%
O=C([C@H](O)c1ccccc1)N1CC2=C(C1)CN(S(=O)(=O)c1cccc(C(F)(F)F)c1)C2 [Example 18-49, (2R)-2-hydroxy-2-phenyl-1-{5-[3-(trifluoromethyl)benzenesulfonyl]-1H,2H,3H,4H,5H,6H-pyrrolo[3,4-c]pyrrol-2-yl}ethan-1-one]				75 to 250%	0.1 to 1 µM	75 to 250%	75 to 250%	0.1 to 1 µM	75 to 250%
